Source: patent US20090137572A1, “2-substituted-4-heteroaryl-pyrimidines useful for the treatment of proliferative disorders” (priority 2004, published 2009)

How the values were obtained:
Type in all cases: biochemical
[1] = target: CDK2-cyclin A (Homo sapiens, UniProt P24941); test: Kinase assay (radioactive phosphate incorporation), CDK2-cyclin A; conditions: read-out: Kinase Inhibition pIC50 CDK2-cyclin A (converted)
Experimental: Kinase assays. The compounds of the invention above were investigated for their ability to inhibit the enzymatic activity of various protein kinases (Table 2). This was achieved by measurement of incorporation of radioactive phosphate from ATP into appropriate polypeptide substrates. Recombinant protein kinases and kinase complexes were produced or obtained commercially. Assays were performed using 96-well plates and appropriate assay buffers (typically 25 mM β-glycerophosphate, 20 mM MOPS, 5 mM EGTA, 1 mM DTT, 1 mM […], pH 7.4), into which were added 2-4 μg of active enzyme with appropriate substrates. The reactions were initiated by addition of Mg/ATP mix (15 mM MgCl2+100 μM ATP with 30-50 kBq per well of [γ-^32P]-ATP) and mixtures incubated as required at 30° C. Reactions were stopped on ice, followed by filtration through p81 filterplates or GF/C filterplates (Whatman Polyfiltronics, Kent, UK). After washing 3 times with 75 mM aq orthophosphoric acid, plates were dried, scintillant added and incorporated radioactivity measured in a scintillation counter (TopCount, Packard Instruments, Pangbourne, Berks, UK). Compounds for kinase assay were made up as 10 mM stocks in DMSO and diluted into 10% DMSO in assay buffer.

[2] = target: GSK3b (Homo sapiens, UniProt P49841); test: Kinase assay (radioactive phosphate incorporation), GSK-3b; conditions: read-out: Kinase Inhibition pIC50 GSK-3b (converted)
GSK3b, sequence (P49841 whole entry, species assumed): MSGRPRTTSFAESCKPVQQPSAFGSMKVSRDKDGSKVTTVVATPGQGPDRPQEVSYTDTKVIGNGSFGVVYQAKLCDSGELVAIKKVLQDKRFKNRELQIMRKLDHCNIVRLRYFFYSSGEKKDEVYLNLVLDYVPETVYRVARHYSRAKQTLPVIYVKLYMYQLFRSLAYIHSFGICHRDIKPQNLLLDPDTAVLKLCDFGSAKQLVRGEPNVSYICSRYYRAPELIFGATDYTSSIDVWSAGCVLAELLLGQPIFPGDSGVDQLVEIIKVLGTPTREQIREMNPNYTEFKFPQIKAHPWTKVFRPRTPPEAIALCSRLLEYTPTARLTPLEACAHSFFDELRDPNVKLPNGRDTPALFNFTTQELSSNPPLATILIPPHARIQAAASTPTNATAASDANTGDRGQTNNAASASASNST
Summary of the method: (§1)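 Each recombinant kinase was combined with its polypeptide substrate in pH 7.4 assay buffer. Mg/ATP mix carrying [γ-32P]-ATP (100 μM ATP) was then added and the plate incubated at 30° C. After stopping on ice, the reaction was filtered, washed with 75 mM orthophosphoric acid, dried and counted.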

[3] = target: CDK4-cyclin D1 (Homo sapiens, UniProt P11802); test: Kinase assay (radioactive phosphate incorporation), CDK4-cyclin D1; conditions: read-out: Kinase Inhibition pIC50 CDK4-cyclin D1 (converted)
CDK4-cyclin D1, sequence (P11802 whole entry): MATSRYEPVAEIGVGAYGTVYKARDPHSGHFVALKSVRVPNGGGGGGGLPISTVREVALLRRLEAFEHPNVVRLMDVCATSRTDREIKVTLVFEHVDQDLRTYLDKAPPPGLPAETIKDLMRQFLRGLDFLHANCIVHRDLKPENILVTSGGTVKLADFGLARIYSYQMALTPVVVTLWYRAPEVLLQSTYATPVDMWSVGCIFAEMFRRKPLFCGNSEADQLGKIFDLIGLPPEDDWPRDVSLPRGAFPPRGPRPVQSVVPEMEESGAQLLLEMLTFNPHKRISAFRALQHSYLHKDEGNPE
CDK4-cyclin D1, sequence (P24385 whole entry partner): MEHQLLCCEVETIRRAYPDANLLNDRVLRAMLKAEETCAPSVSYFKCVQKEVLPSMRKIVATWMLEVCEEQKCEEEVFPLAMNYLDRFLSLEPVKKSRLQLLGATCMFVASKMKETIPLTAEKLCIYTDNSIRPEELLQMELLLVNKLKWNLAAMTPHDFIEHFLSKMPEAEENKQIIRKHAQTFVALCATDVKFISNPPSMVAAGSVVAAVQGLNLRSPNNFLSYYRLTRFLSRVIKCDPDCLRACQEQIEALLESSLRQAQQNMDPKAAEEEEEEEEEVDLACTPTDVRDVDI
Summary of the method: as §1

[4] = target: CDK2-cycline E (Homo sapiens, UniProt P24941); test: Kinase assay (radioactive phosphate incorporation), CDK2-cyclin E; conditions: read-out: Kinase Inhibition pIC50 CDK2-cycline E (converted)
Summary of the method: as §1

[5] = target: CDK7/cyclin H (Homo sapiens, UniProt P50613); test: CDK 7 assay (CTD peptide substrate); conditions: read-out: Kinase Inhibition pIC50 CDK7-cyclin H (converted)
CDK7/cyclin H, sequence (P50613 whole entry): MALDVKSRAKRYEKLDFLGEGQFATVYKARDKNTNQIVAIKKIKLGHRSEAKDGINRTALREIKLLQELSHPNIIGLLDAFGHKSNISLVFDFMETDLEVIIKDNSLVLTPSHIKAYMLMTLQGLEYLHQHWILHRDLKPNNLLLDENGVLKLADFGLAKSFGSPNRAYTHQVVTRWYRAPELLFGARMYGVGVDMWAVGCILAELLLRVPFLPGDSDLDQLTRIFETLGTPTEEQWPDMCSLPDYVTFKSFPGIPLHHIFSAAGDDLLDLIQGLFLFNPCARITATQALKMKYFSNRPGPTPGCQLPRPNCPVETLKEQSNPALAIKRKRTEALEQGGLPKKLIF
CDK7/cyclin H, sequence (P51946 whole entry partner): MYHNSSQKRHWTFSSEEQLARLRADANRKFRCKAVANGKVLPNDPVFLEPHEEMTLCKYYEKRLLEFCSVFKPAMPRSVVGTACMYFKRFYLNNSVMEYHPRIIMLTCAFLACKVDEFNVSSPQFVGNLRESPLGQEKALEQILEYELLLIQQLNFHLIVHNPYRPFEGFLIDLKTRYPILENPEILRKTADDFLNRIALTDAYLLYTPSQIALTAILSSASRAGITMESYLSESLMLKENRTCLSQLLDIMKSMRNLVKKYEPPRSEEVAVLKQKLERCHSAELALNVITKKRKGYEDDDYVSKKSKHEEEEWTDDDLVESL
Summary of the method: (§2)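 Inhibition measured against recombinant human kinase/cyclin complex phosphorylating biotin-(Tyr-Ser-Pro-Thr-Ser-Pro-Ser)4 peptide, 100 μM radiolabelled ATP, 45 min at 30° C. Product quantified by filter capture and scintillation counting.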

[6] = target: T1, Aurora A kinase (Homo sapiens, UniProt O14965); test: Aurora-A (human) kinase assay (Kemptide substrate); conditions: pIC50 is -log(IC50, M); 15 μM ATP; read-out: Kinase Inhibition pIC50 Aurora A kinase (converted)
T1 construct: purchased
T1 sequence (O14965 1-403): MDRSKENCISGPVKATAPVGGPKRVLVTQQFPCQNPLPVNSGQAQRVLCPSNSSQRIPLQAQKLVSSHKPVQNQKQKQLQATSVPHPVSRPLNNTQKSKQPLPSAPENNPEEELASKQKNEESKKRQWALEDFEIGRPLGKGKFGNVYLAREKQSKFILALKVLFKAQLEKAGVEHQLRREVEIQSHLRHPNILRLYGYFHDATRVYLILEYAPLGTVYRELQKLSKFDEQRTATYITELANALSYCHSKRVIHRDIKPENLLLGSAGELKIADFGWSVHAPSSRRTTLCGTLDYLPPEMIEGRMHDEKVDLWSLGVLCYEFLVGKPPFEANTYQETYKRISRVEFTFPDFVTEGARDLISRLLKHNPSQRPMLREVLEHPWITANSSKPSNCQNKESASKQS
Summary of the method: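 Kemptide (LRRASLG, 200 μM) phosphorylation by 5-10 ng commercial aurora-A measured as [γ-33P] incorporation at 15 μM ATP with 10 mM Mg acetate, pH 7.0 MOPS buffer. Reaction ran 40 min at room temperature; acid-stopped, captured on P81 filters, scintillation read.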

[7] = target: CDK9/cyclin T1 (Homo sapiens, UniProt P50750); test: CDK 9 assay (CTD peptide substrate); conditions: read-out: Kinase Inhibition pIC50 CDK9-cyclin T1 (converted)
CDK9/cyclin T1, sequence (P50750 whole entry): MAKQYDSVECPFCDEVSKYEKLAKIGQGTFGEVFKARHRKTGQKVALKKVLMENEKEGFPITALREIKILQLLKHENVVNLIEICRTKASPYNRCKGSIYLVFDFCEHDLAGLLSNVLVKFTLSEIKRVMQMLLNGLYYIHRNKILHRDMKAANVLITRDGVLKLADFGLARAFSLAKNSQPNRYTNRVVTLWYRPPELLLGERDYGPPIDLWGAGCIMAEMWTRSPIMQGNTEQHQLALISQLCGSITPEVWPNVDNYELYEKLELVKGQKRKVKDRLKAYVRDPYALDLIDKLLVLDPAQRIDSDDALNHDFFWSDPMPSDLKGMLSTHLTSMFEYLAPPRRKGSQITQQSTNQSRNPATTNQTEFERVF
CDK9/cyclin T1, sequence (O60563 whole entry partner): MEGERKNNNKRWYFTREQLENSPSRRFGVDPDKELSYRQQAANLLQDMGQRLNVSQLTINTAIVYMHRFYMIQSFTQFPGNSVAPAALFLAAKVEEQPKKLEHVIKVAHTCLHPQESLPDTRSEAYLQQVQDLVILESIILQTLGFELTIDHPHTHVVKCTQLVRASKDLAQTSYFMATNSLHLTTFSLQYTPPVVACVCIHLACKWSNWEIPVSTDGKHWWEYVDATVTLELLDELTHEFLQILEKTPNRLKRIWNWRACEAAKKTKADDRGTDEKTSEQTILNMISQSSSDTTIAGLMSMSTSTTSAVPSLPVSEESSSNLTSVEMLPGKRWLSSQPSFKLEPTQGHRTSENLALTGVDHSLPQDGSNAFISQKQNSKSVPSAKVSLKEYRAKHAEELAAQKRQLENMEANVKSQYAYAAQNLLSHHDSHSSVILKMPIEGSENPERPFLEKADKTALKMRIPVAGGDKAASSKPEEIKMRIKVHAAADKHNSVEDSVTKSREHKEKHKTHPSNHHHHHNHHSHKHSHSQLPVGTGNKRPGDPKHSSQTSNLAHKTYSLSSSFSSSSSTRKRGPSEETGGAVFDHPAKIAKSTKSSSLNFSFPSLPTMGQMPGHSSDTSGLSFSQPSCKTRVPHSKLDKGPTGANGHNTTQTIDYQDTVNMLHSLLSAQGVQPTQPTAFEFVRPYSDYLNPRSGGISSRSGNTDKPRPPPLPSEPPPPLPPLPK
Summary of the method: as §2

[8] = target: CDK1-cyclin B (Homo sapiens, UniProt P06493); test: Kinase assay (radioactive phosphate incorporation), CDK1-cyclin B; conditions: read-out: Kinase Inhibition pIC50 CDK1-cyclin B (converted)
CDK1-cyclin B, sequence (P06493 whole entry): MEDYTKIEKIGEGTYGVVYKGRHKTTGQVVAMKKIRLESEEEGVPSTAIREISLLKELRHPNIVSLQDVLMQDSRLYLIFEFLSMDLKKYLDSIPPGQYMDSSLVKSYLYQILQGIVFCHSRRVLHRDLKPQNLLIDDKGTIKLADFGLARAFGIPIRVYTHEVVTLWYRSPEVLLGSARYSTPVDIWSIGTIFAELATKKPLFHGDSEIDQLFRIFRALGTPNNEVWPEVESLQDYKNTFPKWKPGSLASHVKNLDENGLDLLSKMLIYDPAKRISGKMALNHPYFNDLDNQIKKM
CDK1-cyclin B, sequence (P14635 whole entry partner): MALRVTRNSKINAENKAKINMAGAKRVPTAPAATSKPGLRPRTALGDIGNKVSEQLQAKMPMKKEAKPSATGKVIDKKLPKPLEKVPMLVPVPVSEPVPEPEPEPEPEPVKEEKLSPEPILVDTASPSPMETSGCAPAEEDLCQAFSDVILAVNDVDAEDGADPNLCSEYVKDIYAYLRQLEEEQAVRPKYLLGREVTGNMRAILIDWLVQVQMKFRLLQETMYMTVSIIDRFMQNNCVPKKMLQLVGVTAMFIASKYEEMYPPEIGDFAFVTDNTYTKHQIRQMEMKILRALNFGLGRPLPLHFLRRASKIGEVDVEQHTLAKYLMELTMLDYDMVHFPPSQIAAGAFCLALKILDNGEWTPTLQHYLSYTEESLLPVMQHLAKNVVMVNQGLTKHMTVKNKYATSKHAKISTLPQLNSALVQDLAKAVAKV
Summary of the method: as §1

[9] = target: T2, Flt3 (FMS-like tyrosine kinase-3) (Homo sapiens, UniProt P36888); test: Kinase assay (radioactive phosphate incorporation), Flt3; conditions: pIC50 is -log(IC50, M), read-out: Kinase Inhibition pIC50 Flt3 (converted)
T2 sequence (P36888 27-993): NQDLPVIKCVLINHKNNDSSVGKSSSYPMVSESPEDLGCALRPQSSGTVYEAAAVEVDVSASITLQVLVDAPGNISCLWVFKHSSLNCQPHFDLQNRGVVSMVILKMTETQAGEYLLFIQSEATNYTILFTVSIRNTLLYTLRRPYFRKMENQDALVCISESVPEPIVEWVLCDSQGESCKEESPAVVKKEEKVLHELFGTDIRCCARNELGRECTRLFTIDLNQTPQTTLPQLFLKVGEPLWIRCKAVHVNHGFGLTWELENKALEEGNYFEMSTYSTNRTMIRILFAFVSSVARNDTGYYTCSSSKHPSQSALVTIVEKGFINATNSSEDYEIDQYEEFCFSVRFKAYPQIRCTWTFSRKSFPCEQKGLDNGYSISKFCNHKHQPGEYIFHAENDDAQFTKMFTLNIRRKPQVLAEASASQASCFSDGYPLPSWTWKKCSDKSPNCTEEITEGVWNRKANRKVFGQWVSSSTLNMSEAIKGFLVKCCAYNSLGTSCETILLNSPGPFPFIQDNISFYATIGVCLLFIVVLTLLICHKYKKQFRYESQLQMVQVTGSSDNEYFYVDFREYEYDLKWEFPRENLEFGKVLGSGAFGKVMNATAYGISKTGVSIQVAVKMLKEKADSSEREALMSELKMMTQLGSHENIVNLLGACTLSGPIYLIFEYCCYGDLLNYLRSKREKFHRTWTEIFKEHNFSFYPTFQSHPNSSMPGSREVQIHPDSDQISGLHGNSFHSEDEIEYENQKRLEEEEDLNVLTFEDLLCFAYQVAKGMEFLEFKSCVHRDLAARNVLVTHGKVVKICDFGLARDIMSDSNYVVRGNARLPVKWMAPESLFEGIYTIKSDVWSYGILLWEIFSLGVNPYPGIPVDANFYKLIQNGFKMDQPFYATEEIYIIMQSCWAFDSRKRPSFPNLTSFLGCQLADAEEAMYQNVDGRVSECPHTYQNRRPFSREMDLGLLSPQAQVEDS
Summary of the method: as §1

Compound | IC50 [1] [nM] | IC50 [2] [nM] | IC50 [3] [nM] | IC50 [4] [nM] | IC50 [5] [nM] | IC50 [6] [nM] | IC50 [7] [nM] | IC50 [8] [nM] | IC50 [9] [nM]
Cc1nc(C)c(-c2ccnc(Nc3cccc(CNS(=O)(=O)C(F)(F)F)c3)n2)s1 [Compound 11, N-{3-[4-(2,4-Dimethyl-thiazol-5-yl)-pyrimidin-2-ylamino]-benzyl}-C,C,C-trifluoro-methanesulfonamide] | 1580 | 1580 | 1260 | 158 | 631 | 200 | 1260 | 1580 | 
CNc1nc(C)c(-c2ccnc(Nc3ccc(CNC(C)=O)cc3)n2)s1 [Compound 14, N-{4-[4-(4-Methyl-2-methylamino-thiazol-5-yl)-pyrimidin-2-ylamino]-benzyl}-acetamide] | 631 | 631 | 126 | 39.8 | 794 |  | 79.4 | 398 | 79.4
CCNc1nc(C)c(-c2ccnc(Nc3cccc(S(N)(=O)=O)c3)n2)s1 [Compound 18, 3-[4-(2-Ethylamino-4-methyl-thiazol-5-yl)-pyrimidin-2-ylamino]-benzenesulfonamide] | 1580 | 2510 | 251 | 794 | 126 |  | 15.8 | 2000 | 158
CNc1nc(C)c(-c2ccnc(Nc3ccc(S(C)(=O)=O)cc3)n2)s1 [Compound 20, (4-Methanesulfonyl-phenyl)-[4-(4-methyl-2-methylamino-thiazol-5-yl)-pyrimidin-2-yl]-amine] | 15.8 | 316 | 2510 | 2.51 | 3980 |  | 63.1 | 158 | 316
CNS(=O)(=O)c1cccc(Nc2nccc(-c3sc(C)nc3C)n2)c1 [Compound 33, 3-[4-(2,4-Dimethyl-thiazol-5-yl)-pyrimidin-2-ylamino]-N-methyl-benzenesulfonamide] | 200 | 200 | 200 | 50.1 | 126 | 1260 | 10 | 501 | 
CCNc1nc(C)c(-c2ccnc(Nc3ccc(S(=O)(=O)NCCOC)cc3)n2)s1 [Compound 39, 4-[4-(2-Ethylamino-4-methyl-thiazol-5-yl)-pyrimidin-2-ylamino]-N-(2-methoxy-ethyl)-benzenesulfonamide] | 12.6 | 5010 | 501 | 15.8 | 631 | 126 | 200 | 50.1 | 
CNc1nc(C)c(-c2ccnc(Nc3cccc(S(=O)(=O)NC(C)=O)c3)n2)s1 [Compound 63, N-Acetyl-3-[4-(4-methyl-2-methylamino-thiazol-5-yl)-pyrimidin-2-ylamino]-benzenesulfonamide] | 3160 | 1580 | 501 | 631 | 2510 | 1580 | 398 | 6310 | 
CC(=O)NS(=O)(=O)c1cccc(Nc2nccc(-c3sc(N)nc3C)n2)c1 [Compound 64, N-Acetyl-3-[4-(2-amino-4-methyl-thiazol-5-yl)-pyrimidin-2-ylamino]-benzenesulfonamide] | 2510 | 1580 | 398 | 398 | 1580 | 200 | 251 | 6310 | 

Further lines, results first:

IC50 [1] [nM] | IC50 [2] [nM] | IC50 [3] [nM] | IC50 [4] [nM] | IC50 [5] [nM] | IC50 [6] [nM] | IC50 [7] [nM] | IC50 [8] [nM] | IC50 [9] [nM] | Compound
20 | 316 | 12.6 | 15.8 | 200 | 251 |  | 50.1 | 200 | CCNc1nc(C)c(-c2ccnc(Nc3ccc(S(=O)(=O)NCCO)cc3)n2)s1 [Compound 65, 4-[4-(2-Ethylamino-4-methyl-thiazol-5-yl)-pyrimidin-2-ylamino]-N-(2-hydroxy-ethyl)-benzenesulfonamide]
15.8 | 1260 | 501 | 6.31 | 3980 | 316 |  | 50.1 | 316 | CNc1nc(C)c(-c2ccnc(Nc3ccc(S(=O)(=O)NCCO)cc3)n2)s1 [Compound 67, N-(2-Hydroxy-ethyl)-4-[4-(4-methyl-2-methylamino-thiazol-5-yl)-pyrimidin-2-ylamino]-benzenesulfonamide]
20 | 1580 | 1000 | 10 | 2000 | 79.4 | 398 | 10 |  | Cc1nc(C)c(-c2ccnc(Nc3ccc(S(=O)(=O)NCCO)cc3)n2)s1 [Compound 69, 4-[4-(2,4-Dimethyl-thiazol-5-yl)-pyrimidin-2-ylamino]-N-(2-hydroxy-ethyl)-benzenesulfonamide]
2000 | 1000 | 501 | 316 | 1260 | 631 | 158 | 2000 |  | Cc1nc(C)c(-c2ccnc(Nc3cccc(S(=O)(=O)NCCO)c3)n2)s1 [Compound 78, 3-[4-(2,4-Dimethyl-thiazol-5-yl)-pyrimidin-2-ylamino]-N-(2-hydroxy-ethyl)-benzenesulfonamide]
